This passage reports Ki results from patent US8461328B2, “Tricyclic heterocyclic compounds, compositions and methods of use thereof” (Genentech, Inc., priority 2010, dated 2013).

Holding throughout (assay type): biochemical
In one assay the target is T1, JAK1 (Homo sapiens, UniProt P23458).
T1 construct: made in house; host or cells: SF9 insect cells (baculovirus)
The assay can be described thus: JAK1 inhibition (Table 4). Conditions: read-out: JAK1 Ki.

A further assay concerns the target T2, TYK2 (Homo sapiens, UniProt P29597).
T2 construct: made in house; host or cells: SF9 insect cells (baculovirus)
T2 sequence (P29597 873-1187): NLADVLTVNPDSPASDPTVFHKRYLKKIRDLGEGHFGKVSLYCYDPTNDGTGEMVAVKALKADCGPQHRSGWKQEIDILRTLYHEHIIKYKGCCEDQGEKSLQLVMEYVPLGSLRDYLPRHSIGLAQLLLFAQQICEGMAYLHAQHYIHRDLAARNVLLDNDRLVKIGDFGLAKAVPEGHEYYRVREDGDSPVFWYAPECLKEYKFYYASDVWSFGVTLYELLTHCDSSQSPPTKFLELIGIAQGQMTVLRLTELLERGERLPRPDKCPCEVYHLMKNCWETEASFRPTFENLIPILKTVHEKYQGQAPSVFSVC
The assay can be described thus: TYK2 inhibition (Table 4).

The target in the next assay is T3, JAK2 (Homo sapiens, UniProt O60674).
T3 construct: made in house; host or cells: SF9 insect cells (baculovirus)
The assay can be described thus: JAK2 inhibition (Table 4). Conditions: read-out: JAK2 Ki.

The target of another assay is T4, JAK3 (Homo sapiens, UniProt P52333).
T4 construct: made in house; host or cells: SF9 insect cells (baculovirus)
The assay can be described thus: JAK3 inhibition (Table 4). Conditions: read-out: JAK3 Ki.

SMILES strings stand for the structures.

T4 sequence (P52333 783-1124): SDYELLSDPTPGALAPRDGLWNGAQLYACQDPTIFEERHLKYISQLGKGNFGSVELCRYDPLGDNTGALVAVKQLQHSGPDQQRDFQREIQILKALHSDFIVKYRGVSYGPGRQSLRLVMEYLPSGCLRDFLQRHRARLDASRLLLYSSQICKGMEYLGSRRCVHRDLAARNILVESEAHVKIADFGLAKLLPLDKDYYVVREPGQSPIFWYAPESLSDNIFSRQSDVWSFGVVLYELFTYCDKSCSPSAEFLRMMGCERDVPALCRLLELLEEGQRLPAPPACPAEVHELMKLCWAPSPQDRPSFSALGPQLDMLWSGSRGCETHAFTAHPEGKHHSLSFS
T1 sequence (P23458 852-1154): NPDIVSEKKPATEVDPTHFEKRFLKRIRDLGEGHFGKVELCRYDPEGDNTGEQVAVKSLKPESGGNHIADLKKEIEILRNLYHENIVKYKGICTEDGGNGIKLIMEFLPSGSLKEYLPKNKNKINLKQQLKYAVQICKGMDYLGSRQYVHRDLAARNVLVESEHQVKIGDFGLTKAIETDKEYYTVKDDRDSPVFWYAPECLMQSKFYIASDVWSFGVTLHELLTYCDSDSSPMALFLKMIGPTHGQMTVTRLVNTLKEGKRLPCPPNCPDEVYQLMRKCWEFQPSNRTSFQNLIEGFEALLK
T3 sequence (O60674 812-1132): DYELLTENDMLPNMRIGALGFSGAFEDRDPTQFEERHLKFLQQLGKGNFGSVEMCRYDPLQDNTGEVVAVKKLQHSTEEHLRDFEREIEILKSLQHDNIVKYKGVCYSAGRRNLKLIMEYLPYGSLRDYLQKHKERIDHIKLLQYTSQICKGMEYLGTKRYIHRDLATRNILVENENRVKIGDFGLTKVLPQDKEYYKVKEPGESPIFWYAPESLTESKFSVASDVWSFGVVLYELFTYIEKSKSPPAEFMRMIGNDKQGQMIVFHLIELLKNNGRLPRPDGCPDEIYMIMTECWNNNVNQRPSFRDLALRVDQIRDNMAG

On to `C[C@@H](O)c1nc2cnc3[nH]ccc3c2n1C1CCN(Cc2ccnn2C)CC1` [Example 819, (R)-1-{1-[1-(2-Methyl-2H-pyrazol-3-ylmethyl)-piperidin-4-yl]-1,6-dihydro-1,3,5,6-tetraaza-as-indacen-2-yl}-ethanol], for which the Ki worked out at 10.9 nM at JAK1, 161 nM at TYK2, 61.8 nM on JAK2 and 44.9 nM on JAK3.

Consider `O=C(N[C@H]1CC[C@H](n2cnc3cnc4[nH]ccc4c32)CC1)c1ccccc1` [Example 218, N-[4-(6H-1,3,5,6-Tetraaza-as-indacen-1-yl)-cyclohexyl]-benzamide], for which the Ki on JAK1 is 6.79 nM; on TYK2 it was 33.9 nM; at JAK2, 6.07 nM; on JAK3, 76.4 nM.

Turning to `c1cc(N2CCC(n3cnc4cnc5[nH]ccc5c43)CC2)ncn1` [Example 65, 1-(1-Pyrimidin-4-yl-piperidin-4-yl)-1,6-dihydro-1,3,5,6-tetraaza-as-indacene], the Ki came out at 14.9 nM at JAK1, 107 nM on TYK2, 34.6 nM at JAK2 and 281 nM at JAK3.

As to `OCCN1CC[C@@H](n2cnc3cnc4[nH]ccc4c32)C1` [Example 184, 2-[(R)-3-(6H-1,2,3,5,6-Tetraaza-as-indacen-1-yl)-pyrrolidin-1-yl]-ethanol], the Ki on JAK1 is 94.7 nM; at TYK2, 644 nM; at JAK2 it was 250 nM; on JAK3 it was 1490 nM.

With `Cc1nc2cnc3[nH]ccc3c2n1C1CCC(NC(=O)N(C)CC(F)(F)F)C1` (racemic) [Example 736, 1-Methyl-3-[3-(2-methyl-6H-1,3,5,6-tetraaza-as-indacen-1-yl)-cyclopentyl]-1-(2,2,2-trifluoro-ethyl)-urea], the Ki on JAK1 was 1.28 nM; at TYK2 it was 57.2 nM; at JAK2, 6.42 nM; at JAK3 it was 0.79 nM.

In the case of `N#CCCn1ncc2c1CC[C@H](n1cnc3cnc4[nH]ccc4c31)C2` [Example 959, 3-[(S)-5-(6H-1,3,5,6-Tetraaza-as-indacen-1-yl)-4,5,6,7-tetrahydro-indazol-1-yl]-propionitrile], the Ki amounted to 4.63 nM on JAK1, 38 nM on TYK2, 6.3 nM on JAK2 and 86.5 nM at JAK3.

As for `OC1CCC(n2cnc3cnc4[nH]ccc4c32)C1` (stereo not drawn) [Example 708, 3-(6H-1,2,3,5,6-Tetraaza-as-indacen-1-yl)-cyclopentanol], the Ki at JAK1 was determined as 11.4 nM; at TYK2, 77.5 nM; at JAK2 it was 38.6 nM; on JAK3 it was 79.8 nM.

For the compound `c1nc2c([nH]1)CCC(n1cnc3cnc4[nH]ccc4c31)C2` (racemic) [Example 707, 1-(4,5,6,7-Tetrahydro-3H-benzoimidazol-5-yl)-1,6-dihydro-1,2,3,5,6-tetraaza-as-indacene], the Ki on JAK1 amounted to 74.5 nM; at TYK2 it was 391 nM; on JAK2 it was 123 nM; on JAK3 it was 112 nM.

Take `N#CCCN1CCC(n2c(CCNC(=O)c3ccccc3)nc3cnc4[nH]ccc4c32)CC1` [Example 380, N-(2-{1-[1-(2-Cyano-ethyl)-piperidin-4-yl]-1,6-dihydro-1,3,5,6-tetraaza-as-indacen-2-yl}-ethyl)-benzamide]: the Ki on JAK1 amounted to 3.98 nM; on TYK2, 142 nM; at JAK2 it was 36 nM; on JAK3, 62.6 nM.

Regarding `CS(=O)(=O)NCc1nc2cnc3[nH]ccc3c2n1C1CC2CCC1O2` (stereo not drawn) [Example 925, N-[1-(7-Oxa-bicyclo[2.2.1]hept-2-yl)-1,6-dihydro-1,3,5,6-tetraaza-as-indacen-2-ylmethyl]-methanesulfonamide], the Ki at JAK1 amounted to 30 nM; at TYK2 it was 338 nM; on JAK2 it was 252 nM; at JAK3, 555 nM.

Take `CC(C(=O)N1CCC(n2cnc3cnc4[nH]ccc4c32)CC1)N(C)C` (racemic) [Example 438, 2-Dimethylamino-1-[4-(6H-1,3,5,6-tetraaza-as-indacen-1-yl)-piperidin-1-yl]-propan-1-one]: the Ki at JAK1 came out at 23.3 nM; at TYK2, 823 nM; at JAK2, 184 nM; at JAK3 it was 2380 nM.

In the case of `O=C(N[C@H]1CC[C@H](n2cnc3cnc4[nH]ccc4c32)CC1)OCC1CC1` [Example 140, Trans[4-(6H-1,2,3,5,6-Tetraaza-as-indacen-1-yl)-cyclohexyl]-carbamic acid cyclopropylmethyl ester], the Ki at JAK1 amounted to 5.16 nM; on TYK2, 78.8 nM; at JAK2 it was 17.4 nM; at JAK3, 88.1 nM.

Regarding `OC[C@@H](O)c1nc2cnc3[nH]ccc3c2n1C1CCCCC1` [Example 688, (S)-1-(1-Cyclohexyl-1,6-dihydro-1,2,3,5,6-tetraaza-as-indacen-2-yl)-ethane-1,2-diol], the Ki at JAK1 came out at 1.77 nM; on TYK2, 4.7 nM; on JAK3, 16.1 nM.

Turning to `CN(C(=O)Cc1nc2cnc3[nH]ccc3c2n1C1CCNCC1)C1CCCC1` [Example 257, N-Cyclopentyl-N-methyl-2-(1-piperidin-4-yl-1,6-dihydro-1,3,5,6-tetraaza-as-indacen-2-yl)-acetamide], the Ki at JAK1 amounted to 200 nM; at TYK2, 3430 nM; at JAK3, 397 nM.

`OC[C@H](O)c1nc2cnc3[nH]ccc3c2n1C1CCCCC1` [Example 858, (R)-1-(1-Cyclohexyl-1,6-dihydro-1,3,5,6-tetraaza-as-indacen-2-yl)-ethane-1,2-diol]: the inhibitory constant (Ki) on JAK1 was found to be 7.77 nM; on TYK2, 19.8 nM; on JAK3, 52.4 nM.

`OCC(O)c1nc2cnc3[nH]ccc3c2n1C1CCCCC1` (racemic) [Example 853, 1-(1-Cyclohexyl-1,6-dihydro-1,3,5,6-tetraaza-as-indacen-2-yl)-ethane-1,2-diol]: the Ki is 1.98 nM at JAK1, 5.29 nM on TYK2 and 20.4 nM at JAK3.

Regarding `N#Cc1ccc(S(=O)(=O)N2CC[C@@H](n3cnc4cnc5[nH]ccc5c43)C2)cc1` [Example 433, 4-[(R)-3-(6H-1,3,5,6-Tetraaza-as-indacen-1-yl)-pyrrolidine-1-sulfonyl]-benzonitrile], the Ki on JAK1 is 22.4 nM; at TYK2, 293 nM; on JAK2 it was 87.6 nM.

As to `CCN1CCCC[C@H]1C(=O)N1CCC(n2cnc3cnc4[nH]ccc4c32)CC1` [Example 949, ((S)-1-Ethyl-piperidin-2-yl)-[4-(6H-1,3,5,6-tetraaza-as-indacen-1-yl)-piperidin-1-yl]-methanone], the Ki is 44.1 nM on JAK1, 1790 nM on TYK2 and 515 nM at JAK2.

For the compound `Cc1nc(S(=O)(=O)N2CCC(n3cnc4cnc5[nH]ccc5c43)CC2)cn1C` [Example 444, 1-[1-(1,2-Dimethyl-1H-imidazole-4-sulfonyl)-piperidin-4-yl]-1,6-dihydro-1,3,5,6-tetraaza-as-indacene], the Ki on JAK1 was 481 nM; on TYK2, 3420 nM; at JAK2, 370 nM.

In the case of `O=C([C@@H]1CCCN1C1CCC1)N1CCC(n2cnc3cnc4[nH]ccc4c32)CC1` [Example 147, ((S)-1-Cyclobutyl-pyrrolidin-2-yl)-[4-(6H-1,2,3,5,6-tetraaza-as-indacen-1-yl)-piperidin-1-yl]-methanone], the Ki was 65.3 nM on JAK1, 1530 nM on TYK2 and 596 nM on JAK2.

As for `CC(C)N1CCC(n2nnc3cnc4[nH]ccc4c32)CC1` [Example 548, 1-(1-Isopropyl-piperidin-4-yl)-1,6-dihydro-1,2,3,5,6-pentaaza-as-indacene], the values for the Ki on JAK1, at TYK2 and at JAK2 were 223 nM, 2790 nM and 484 nM, respectively.

As to `CN(C)CC(=O)N1CC[C@@H](n2cnc3cnc4[nH]ccc4c32)C1` [Example 429, 2-Dimethylamino-1-[(R)-3-(6H-1,3,5,6-tetraaza-as-indacen-1-yl)-pyrrolidin-1-yl]-ethanone], the Ki at JAK1 amounted to 211 nM; at TYK2, 2230 nM; at JAK2, 894 nM.

In the case of `CN1CCN(CC(=O)N2CCC(n3cnc4cnc5[nH]ccc5c43)CC2)CC1` [Example 193, 2-(4-Methyl-piperazin-1-yl)-1-[4-(6H-1,2,3,5,6-tetraaza-as-indacen-1-yl)-piperidin-1-yl]-ethanone], the Ki stood at 111 nM on JAK1, 3150 nM at TYK2 and 697 nM on JAK2.

Consider `O=C([C@@H]1CCCCN1C1COC1)N1CCC(n2cnc3cnc4[nH]ccc4c32)CC1` [Example 951, ((S)-1-Oxetan-3-yl-piperidin-2-yl)-[4-(6H-1,3,5,6-tetraaza-as-indacen-1-yl)-piperidin-1-yl]-methanone], for which the Ki on JAK1 was determined as 141 nM; on TYK2 it was 2880 nM; on JAK2 it was 480 nM.

As to `Cc1nc2cnc3[nH]ccc3c2n1C1CCN(C(=O)[C@@H]2CCCN2C)CC1` [Example 285], the results for the Ki at JAK1, on TYK2 and on JAK2 were 51.8 nM, 2410 nM and 402 nM, respectively.

For the compound `N#Cc1cccc(CC(=O)N2CC[C@@H](n3cnc4cnc5[nH]ccc5c43)C2)c1` [Example 189, 3-{2-oxo-2-[(R)-3-(6H-1,2,3,5,6-tetraaza-as-indacen-1-yl)-pyrrolidin-1-yl]-ethyl}-benzonitrile], the Ki at JAK1 was determined as 89.5 nM; at TYK2, 1410 nM; on JAK2, 362 nM.
